Drawing on US11066414B2, “Cot modulators and methods of use thereof” (Gilead Sciences, Inc., priority 2015, dated 2021), this text covers IC50 and EC50 for 22 molecules.

One experiment addresses Human Cot (Homo sapiens (Human), UniProt P41279). The experiment is described as follows: High Throughput Cot Biochemical Assay.
The subject of another experiment is TNFα. The experiment is described as follows: Cot Monocyte TNFα Cell Based Assay.
[1] abbreviates: IC50 HTRF, Cot HTRF (TR-FRET KinEASE) biochemical assay, 400 μM ATP.
Where [2] appears, read: Homo sapiens, Monocyte, read-out: EC50 TNF, LPS-stimulated human monocytes, TNFα TR-FRET.
[3] abbreviates: IC50 HTRF, Cot HTRF (TR-FRET) biochemical assay.
Setting [4] is: Homo sapiens, Monocyte, read-out: EC50 TNF, LPS-stimulated human monocytes, TNFα.
Setting [5] is: read-out: IC50 HTRF, Cot HTRF (TR-FRET) biochemical assay.
[6] abbreviates: read-out: EC50 TNF, LPS-stimulated human monocytes, TNFα.

Like-named read-outs stand apart in the source and are kept apart here.

Sequence of Human Cot (P41279 30-397): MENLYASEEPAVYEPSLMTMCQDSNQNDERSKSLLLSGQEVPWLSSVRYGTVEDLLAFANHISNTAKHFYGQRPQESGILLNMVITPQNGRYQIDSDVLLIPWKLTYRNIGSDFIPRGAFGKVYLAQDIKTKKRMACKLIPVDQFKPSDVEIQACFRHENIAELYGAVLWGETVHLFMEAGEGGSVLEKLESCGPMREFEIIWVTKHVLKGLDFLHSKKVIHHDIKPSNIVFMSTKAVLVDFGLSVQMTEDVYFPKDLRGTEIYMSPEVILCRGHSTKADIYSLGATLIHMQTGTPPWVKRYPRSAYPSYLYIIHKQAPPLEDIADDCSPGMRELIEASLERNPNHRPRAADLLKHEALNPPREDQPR

As usually defined, the IC50 is the concentration that inhibits the measured activity by half. Usually EC50 stands for the concentration needed to bring the measured effect to its halfway point. For the molecule `Cc1nc(F)ccc1[C@H](Nc1cc(C#N)c2ncc(C#N)c(NCC(C)(C)C(F)(F)F)c2c1)c1cn(C2(C(F)F)CC2)nn1` [Example 841], the IC50 on Human Cot (read-out: IC50 HTRF, Cot HTRF (TR-FRET KinEASE) biochemical assay, 400 μM ATP) is 2 nM. In the experiment on TNFα (read-out: EC50 TNF, LPS-stimulated human monocytes, TNFα TR-FRET), the EC50 is 41 nM.

Molecule `COc1c([C@@H](Nc2cc(Cl)c3ncc(C#N)c(NCC(C)(C)C)c3c2)c2ccc(F)nc2C)nnn1C12CC(C1)C2` [Example 968, (S)-6-(((1-(bicyclo[1.1.1]pentan-1-yl)-5-methoxy-1H-1,2,3-triazol-4-yl)(6-fluoro-2-methylpyridin-3-yl)methyl)amino)-8-chloro-4-(neopentylamino)quinoline-3-carbonitrile] returned an IC50 at Human Cot (setting [1]) of 2 nM. Also, the EC50 in the experiment on TNFα (setting [2]) was 94 nM.

Consider `CC(C)(C)CNc1c(C#N)cnc2c(C#N)cc(N[C@H](c3cn(C4(C(F)(F)F)CC4)nn3)c3cccc4c(=O)n(CC(F)(F)F)ccc34)cc12` [Example 875, (S)-4-(neopentylamino)-6-(((1-oxo-2-(2,2,2-trifluoroethyl)-1,2-dihydroisoquinolin-5-yl)(1-(1-(trifluoromethyl)cyclopropyl)-1H-1,2,3-triazol-4-yl)methyl)amino)quinoline-3,8-dicarbonitrile], for which the half-maximal inhibitory concentration (IC50) on Human Cot (setting [1]) is 2 nM. Also, in the experiment on TNFα (setting [2]), the EC50 is 166 nM.

In the case of `C[C@@H](Nc1c(C#N)cnc2c(Cl)cc(N[C@H](c3c[nH]nn3)c3csc4c3CCN(C3COC3)C4)cc12)c1ccccc1` [Example 238, 8-chloro-6-(((S)-(6-(oxetan-3-yl)-4,5,6,7-tetrahydrothieno[2,3-c]pyridin-3-yl)(1H-1,2,3-triazol-4-yl)methyl)amino)-4-(((R)-1-phenylethyl)amino)quinoline-3-carbonitrile], the IC50 against Human Cot (setting [3]) stood at 3 nM. The half-maximal effective concentration (EC50) in the experiment on TNFα (setting [4]) was 901 nM.

`CC(C)(C)CNc1c(C#N)cnc2c(C#N)cc(N[C@H](c3cn(C4CC4)nn3)c3csc4c3CCN(C3COC3)C4)cc12` [Example 433, (S)-6-(((1-cyclopropyl-1H-1,2,3-triazol-4-yl)(6-(oxetan-3-yl)-4,5,6,7-tetrahydrothieno[2,3-c]pyridin-3-yl)methyl)amino)-4-(neopentylamino)-quinoline-3,8-dicarbonitrile] came in with a concentration for half-maximal inhibition (IC50) against Human Cot (setting [3]) of 1 nM. Further, in the experiment on TNFα (setting [4]), the EC50 turned out to be 65 nM.

For `Cc1ncccc1[C@H](Nc1cc(Cl)c2ncc(C#N)c(Nc3cccc(Cl)c3F)c2c1)c1cn(C2CCN(C(C)(C)C)CC2)nn1` [Example 247, (S)-6-(((1-(1-(tert-butyl)piperidin-4-yl)-1H-1,2,3-triazol-4-yl)(2-methylpyridin-3-yl)methyl)amino)-8-chloro-4-((3-chloro-2-fluorophenyl)amino)quinoline-3-carbonitrile], the IC50 at Human Cot (setting [5]) is 2 nM. Moreover, the EC50 with TNFα (setting [4]) is 102 nM.

In the case of `CC(C)(C)N1CCC(n2cc([C@@H](Nc3cc(Cl)c4ncc(C#N)c(Nc5ccc(F)c(Cl)c5)c4c3)c3csc(N4CCOCC4)n3)nn2)CC1` [Example 300], on Human Cot (setting [5]), the 50% inhibitory concentration (IC50) turned out to be 7 nM. In addition, in the experiment on TNFα (setting [6]), the half-maximal effective concentration (EC50) came to 165 nM.

Regarding `Cn1cnc2cccc([C@H](Nc3cc(C#N)c4ncc(C#N)c(NCC(C)(C)C)c4c3)c3cn(C4(C(F)F)CC4)nn3)c21` [Example 523], at Human Cot (setting [5]), the IC50 came out at 2 nM. For the same molecule, the EC50 in the experiment on TNFα (setting [6]) was found to be 63 nM.

On to `C[C@@H](n1cc([C@@H](Nc2cc(Cl)c3ncc(C#N)c(Nc4cnc(F)c(F)c4)c3c2)c2cccnc2)nn1)C(F)(F)F` [Example 205, 8-chloro-4-((5,6-difluoropyridin-3-yl)amino)-6-(((S)-pyridin-3-yl(1-((R)-1,1,1-trifluoropropan-2-yl)-1H-1,2,3-triazol-4-yl)methyl)amino)quinoline-3-carbonitrile], for which, at Human Cot (setting [3]), the half-inhibitory concentration (IC50) was 72 nM. In addition, the EC50 with TNFα (setting [4]) was 2050 nM.

For `COc1ccc([C@H](Nc2cc(Cl)c3ncc(C#N)c(NCC(C)(C)C)c3c2)c2cn(C3(C(F)(F)F)CC3)nn2)cn1` [Example 805, (S)-8-chloro-6-(((6-methoxypyridin-3-yl)(1-(1-(trifluoromethyl)cyclopropyl)-1H-1,2,3-triazol-4-yl)methyl)amino)-4-(neopentylamino)quinoline-3-carbonitrile], inhibition against Human Cot (setting [1]) was half-maximal at 28 nM (IC50). The EC50 in the experiment with TNFα (setting [2]) is 778 nM.

At Human Cot (setting [1]), `CC(C)(C)CNc1c(C#N)cnc2c(Cl)cc(N[C@@H](c3ccc4nccn4c3)c3cn(C4(C(F)(F)F)CC4)nn3)cc12` [Example 935, (S)-8-chloro-6-((imidazo[1,2-a]pyridin-6-yl(1-(1-(trifluoromethyl)cyclopropyl)-1H-1,2,3-triazol-4-yl)methyl)amino)-4-(neopentylamino)quinoline-3-carbonitrile] had a half-maximal inhibitory concentration (IC50) of 24 nM. The concentration for a half-maximal effect (EC50) in the experiment on TNFα (setting [2]) came out at 424 nM.

On Human Cot (setting [3]), `Cc1nc(F)ccc1[C@H](Nc1cc(Cl)c2ncc(C#N)c(NCC(C)(C)C)c2c1)c1cn(C23CC(C2)C3)nn1` [Example 646, (S)-6-(((1-(bicyclo[1.1.1]pentan-1-yl)-1H-1,2,3-triazol-4-yl)(6-fluoro-2-methylpyridin-3-yl)methyl)amino)-8-chloro-4-(neopentylamino)quinoline-3-carbonitrile] gave a half-maximal inhibitory concentration (IC50) of 3 nM. The EC50 in the experiment on TNFα (setting [4]) stood at 40 nM.

`CC(C)(C)CNc1c(C#N)cnc2c(Cl)cc(N[C@H](c3cn(C4(C(F)(F)F)CC4)nn3)c3cccc4cnc(Cl)cc34)cc12` [Example 915, (S)-8-chloro-6-(((3-chloroisoquinolin-5-yl)(1-(1-(trifluoromethyl)cyclopropyl)-1H-1,2,3-triazol-4-yl)methyl)amino)-4-(neopentylamino)quinoline-3-carbonitrile] yielded a 50% inhibitory concentration (IC50) at Human Cot (setting [1]) of 44 nM. In addition, in the experiment with TNFα (setting [2]), the EC50 amounted to 324 nM.

As for `Cc1ncccc1[C@H](Nc1cc(Cl)c2ncc(C#N)c(Nc3cccc(Cl)c3)c2c1)c1cn(C2CCN(C(C)(C)C)CC2)nn1` [Example 226, (S)-6-(((1-(1-(tert-butyl)piperidin-4-yl)-1H-1,2,3-triazol-4-yl)(2-methylpyridin-3-yl)methyl)amino)-8-chloro-4-((3-chlorophenyl)amino)quinoline-3-carbonitrile], the 50% inhibitory concentration (IC50) at Human Cot (setting [3]) was found to be 8 nM. Besides, the EC50 in the experiment with TNFα (setting [4]) turned out to be 880 nM.

Molecule `Cn1cc2cccc([C@H](Nc3cc(C#N)c4ncc(C#N)c(NCC(C)(C)C)c4c3)c3cn(C4(C(F)(F)F)CC4)nn3)c2n1` [Example 573, (S)-6-(((2-methyl-2H-indazol-7-yl)(1-(1-(trifluoromethyl)cyclopropyl)-1H-1,2,3-triazol-4-yl)methyl)amino)-4-(neopentylamino)quinoline-3,8-dicarbonitrile] displayed an IC50 at Human Cot (setting [3]) of 66 nM. In the experiment with TNFα (setting [4]), the concentration giving a half-maximal response (EC50) worked out at 751 nM.

As to `CC(C)(C)N1CCC(n2cc([C@@H](Nc3cc(Cl)c4ncc(C#N)c(Nc5ccc(F)c(Cl)c5)c4c3)c3ccc(Cl)nc3Cl)nn2)CC1` [Example 325, (S)-6-(((1-(1-(tert-butyl)piperidin-4-yl)-1H-1,2,3-triazol-4-yl)(2,6-dichloropyridin-3-yl)methyl)amino)-8-chloro-4-((3-chloro-4-fluorophenyl)-amino)quinoline-3-carbonitrile], half-maximal inhibition against Human Cot (setting [3]) (IC50) required 20 nM. In the experiment with TNFα (setting [4]), the EC50 came to 650 nM.

On Human Cot (setting [1]), `CC1(n2cc([C@@H](Nc3cc(C#N)c4ncc(C#N)c(NCC(C)(C)C(F)(F)F)c4c3)c3ccc(F)c4ncccc34)nn2)CC1` [Example 813, (S)-6-(((8-fluoroquinolin-5-yl)(1-(1-methylcyclopropyl)-1H-1,2,3-triazol-4-yl)methyl)amino)-4-((3,3,3-trifluoro-2,2-dimethylpropyl)amino)quinoline-3,8-dicarbonitrile] showed an IC50 of 2 nM. The EC50 with TNFα (setting [2]) amounted to 24 nM.

Consider `Cc1nc(F)ccc1[C@H](Nc1cc(C#N)c2ncc(C#N)c(N[C@@H]3CCOCC3(C)C)c2c1)c1cn(C2(C3CC3)CC2)nn1` [Example 675], for which, on Human Cot (setting [5]), the IC50 stood at 1 nM. The EC50 in the experiment on TNFα (setting [6]) is 7 nM.

For the molecule `N#Cc1cnc2c(Cl)cc(N[C@H](c3cn(C4COC4)nn3)c3cccnc3Cl)cc2c1Nc1ccc(F)c(Cl)c1` [Example 319, (S)-8-chloro-4-((3-chloro-4-fluorophenyl)amino)-6-(((2-chloropyridin-3-yl)(1-(oxetan-3-yl)-1H-1,2,3-triazol-4-yl)methyl)amino)-quinoline-3-carbonitrile], at Human Cot (setting [3]), the half-maximal inhibitory concentration (IC50) came to 5 nM. Further, the half-maximal effective concentration (EC50) in the experiment on TNFα (setting [4]) came out at 165 nM.

`[2H][C@](Nc1cc(Cl)c2ncc(C#N)c(NCC(C)(C)C)c2c1)(c1cccnc1)c1cn(-c2cccnc2)nn1` [Example 138, (S)-8-chloro-4-(neopentylamino)-6-((pyridin-3-yl(1-(pyridin-3-yl)-1H-1,2,3-triazol-4-yl)methyl-d)amino)quinoline-3-carbonitrile]: the IC50 on Human Cot (setting [3]) came out at 3 nM. In addition, in the experiment with TNFα (setting [4]), the concentration giving a half-maximal response (EC50) came out at 141 nM.

In the case of `Cc1nc(F)ccc1[C@H](Nc1cc(Cl)c2ncc(C#N)c(NCC(C)(C)CO)c2c1)c1cn(C2(C(F)(F)F)CC2)nn1` [Example 534, (S)-8-chloro-6-(((6-fluoro-2-methylpyridin-3-yl)(1-(1-(trifluoromethyl)cyclopropyl)-1H-1,2,3-triazol-4-yl)methyl)amino)-4-((3-hydroxy-2,2-dimethylpropyl)amino)-quinoline-3-carbonitrile], it took 20 nM to reach half-maximal inhibition against Human Cot (setting [3]) (IC50). For the same molecule, the EC50 in the experiment on TNFα (setting [4]) is 394 nM.

In the case of `Cc1nc(F)ccc1[C@H](Nc1cc(C#N)c2ncc(C#N)c(NCC(C)(C)C)c2c1)c1cn([C@@H]2C[C@@H]2F)nn1` [Example 622, 6-(((S)-(6-fluoro-2-methylpyridin-3-yl)(1-((1R,2S)-2-fluorocyclopropyl)-1H-1,2,3-triazol-4-yl)methyl)amino)-4-(neopentylamino)quinoline-3,8-dicarbonitrile], the IC50 on Human Cot (setting [3]) stood at 1 nM. In the experiment with TNFα (setting [4]), the EC50 turned out to be 24 nM.
